The values below come from patent US20010007675A1, “Cosmetic and dermatological compositions containing aminoalchohol derivatives containing a urea functional group and uses thereof” (L'OREAL, priority 1996, published 2001).

SMILES strings stand for the structures.

Data set [1] can be described thus: Measurement of the imperceptible water loss (IWL) with an evaporimeter (Servomed). The following applies: compound at 1% in dichloromethane/methanol (2/1 v/v), applied on delipidated stratum corneum; measured 20 hours after application. The method, then:
Measurement of the imperceptible water loss (IWL)
This measurement was carried out using an evaporimeter (Servomed) which quantitatively determines the evaporation of water, that is transportation of water by diffusion, from a stratum corneum sample which seals a cylindrical capsule containing water, the whole assembly being placed in a chamber with controlled relative temperature and controlled relative humidity.
Sensors made it possible to measure the partial vapour pressure of water at two points situated at different distances from the sample.
The partial vapour pressure of water gradient between the two points was thus determined and therefore the degree of evaporation in accordance with Fick's law.
This measurement is carried out for:
The compounds were prepared in the proportion of 1% in a dichloromethane/methanol (2/1 v/v) mixture and then applied on pieces of delipidated stratum comeum.
The imperceptible water loss (IWL) for each compound was measured 20 hours after application.

Usually melting point stands for the temperature of the solid-liquid transition. Turning to `CCCCCCCCCCCCNC(=O)N(C)C[C@H](O)[C@@H](O)[C@H](O)[C@H](O)CO` [Example 1, N-dodecylaminocarbonyl-N-methyl-D-glucamine], the melting point came out at 116.8 °C. Moreover, the “I.W.L. (imperceptible water loss)” value in data set [1] was −21 +/− 2.
On to `CCCCCCCCCCCC(=O)N(C)C[C@H](O)[C@@H](O)[C@H](O)[C@H](O)CO` [Reference A, N-dodecanoyl-N-methyl-D-glucamine], for which the “I.W.L. (imperceptible water loss)” value in data set [1] is listed as −11 +/− 3.
In turn, `CCCCCCCCNC(=O)N(C)C[C@H](O)[C@@H](O)[C@H](O)[C@H](O)CO` [Example 8, N-octylaminocarbonyl-N-methyl-D-glucamine] displayed a melting point of 111.4 °C.
With `CCCCCCCCCCCCOC(=O)N(C)C[C@H](O)[C@@H](O)[C@H](O)[C@H](O)CO` [Reference B, N-dodecyloxycarbonyl-N-methyl-D-lucamine], the “I.W.L. (imperceptible water loss)” value in data set [1] is −9 +/− 2.
